We go through six compounds from article PMC10580381 (ACS Pharmacology & Translational Science, 2023).

Broadly, the viability is a read-out of living cells in per cent, often relative to untreated cells. A high value points to less harm to the cells.

Series [1] deals with histone H3 acetylation (Lys 9,14) (AcH3). Put plainly: Western blot of histone H3 acetylation (AcH3) in H1975 cells. The class given is cell-based, human. Conditions: 10 μM, 24 h (Figure 1A,B). The procedure:
An increase of histone acetylation is a well-characterized hallmark of HDAC inhibition. […] After the cancer cells were treated with the designated drug candidates, they were harvested in lysis buffer (0.05 M HEPES, 0.15 M NaCl, 2 mM EDTA, 10% v/v glycerol, and 1% v/v Triton X-100, pH 7.4) supplemented with protease and phosphatase inhibitors. Sodium dodecyl sulfate poly(acrylamide) gel electrophoresis (SDS-PAGE) was used to separate the different proteins in the whole cell lysates, which were then transferred to a poly(vinylidene difluoride) membrane for immunoblot analysis using different specific antibodies (acetylated histone H3, acetylated α-tubulin, histone H3, or GAPDH; Cell Signaling Technology). The bands corresponding to specific proteins of interest were visualized by using the WesternBright ECL HRP substrate (Advansta, San Jose, California). A chemiluminescent Western blot signal was detected and analyzed using a ChemiDoc MP system (Bio-Rad Laboratories, Hercules, California).

Series [2] deals with T1, ABCG2 (Homo sapiens, UniProt Q9UNQ0).
T1 sequence (Q9UNQ0 1-655): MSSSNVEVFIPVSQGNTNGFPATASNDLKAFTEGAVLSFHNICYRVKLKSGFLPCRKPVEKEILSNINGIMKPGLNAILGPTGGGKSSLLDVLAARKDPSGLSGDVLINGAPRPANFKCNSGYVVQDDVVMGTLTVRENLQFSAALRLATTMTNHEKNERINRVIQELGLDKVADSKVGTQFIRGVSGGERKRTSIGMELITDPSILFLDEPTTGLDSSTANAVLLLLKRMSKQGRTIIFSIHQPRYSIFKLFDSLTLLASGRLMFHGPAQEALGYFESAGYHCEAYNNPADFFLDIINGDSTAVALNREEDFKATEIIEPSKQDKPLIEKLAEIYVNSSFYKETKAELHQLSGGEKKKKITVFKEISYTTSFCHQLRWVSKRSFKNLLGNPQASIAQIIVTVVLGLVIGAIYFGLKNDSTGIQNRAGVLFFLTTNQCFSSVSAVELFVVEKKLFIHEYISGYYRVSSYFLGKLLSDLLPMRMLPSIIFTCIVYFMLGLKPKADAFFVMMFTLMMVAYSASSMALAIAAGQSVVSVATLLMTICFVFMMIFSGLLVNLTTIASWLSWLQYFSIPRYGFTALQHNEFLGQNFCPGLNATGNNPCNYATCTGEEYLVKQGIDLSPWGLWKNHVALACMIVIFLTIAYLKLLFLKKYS
Put plainly: ABC transporter-mediated drug efflux assay, ABCG2 (pheophorbide A). Conditions: FTC 1 μM, control ABCG2 inhibitor, HEK293/ABCG2. The procedure: (§1) Specific inhibitors for ABCB1 (PSC833) and ABCG2 (FTC) were used as a control for comparison. Cells were analyzed by using a LSRFortessa cell analyzer (BD Biosciences). […] At least 10,000 events were collected for quantitative analysis.

Series [3] concerns Bim (BCL2L11). Briefly: Real-time PCR of Bim expression in H1975. The class given is cell-based, human. The note with it: H1975, 24 h, flunarizine 2.5, 5, or 10 μM or SAHA 0.25, 0.5, or 1 μM; all concentrations tested. The procedure:
(§2) Reverse transcription was performed using 1 μg of total RNA sample with the PrimeScript First Strand cDNA Synthesis Kit (TaKaRa Biomedical Technology) at 37 °C for 10 min. The cDNA was then amplified by real-time PCR to determine the relative expression of p27^Kip1 and BIM using the KAPA SYBR FAST qPCR kit (KapaBiosystems, Wilmington, Massachusetts) with a LightCycler 480 Instrument I instrument (Roche Applied Science, Indianapolis, Indiana). The house-keeping gene GAPDH was also measured for normalization. Specific primer sequences used in the PCR reactions are p27^Kip1, forward 5′-[…]-3′ and reverse 5′-[…]-3′; Bim, forward 5′-[…]-3′ and reverse 5′-[…]-3′; and GAPDH, forward 5′-[…]-3′ and reverse 5′-[…]-3′. The PCR temperature program was set at 95 °C for 5 min, followed by 35 cycles of 95 °C for 10 s and 60 °C for 10 s. The fluorescent signal was detected at the end of the PCR elongation step of every cycle to keep track of the amount of amplified DNA. ΔCt was calculated by subtracting the Ct of GAPDH from the Ct of Bim or p27^Kip1. Fold change in gene expression was analyzed by the 2^–ΔΔCt method.

The subject of series [4] is p27^Kip1 (CDKN1B). Put plainly: Real-time PCR of p27^Kip1 expression in H1975. Conditions: H1975, 24 h, flunarizine 2.5, 5, or 10 μM or SAHA 0.25, 0.5, or 1 μM; all concentrations tested. The series is classed as cell-based, human. How it is done:
as §2
For orientation: Real-time PCR tracks product formation cycle by cycle.

The conditions of series [5]: cited from earlier work.
The target of series [6] is ABCB1 (Homo sapiens, UniProt P08183). Put plainly: ABC transporter-mediated drug efflux assay, ABCB1 (rhodamine 123). The note with it: PSC833 1 μM, control ABCB1 inhibitor, HEK293/ABCB1. The procedure: as §1
Series [7] has as its system H1975 cells. The note with it: H1975, gefitinib 5 μM alone, 48 h.
Series [8] relates to H820 cells. Conditions: H820, gefitinib 5 μM alone, 48 h.
Series [9] has as its system H1975 cells.
Series [10] deals with H1650 cells.
The test system of series [11] is H820 cells.
The subject of series [12] is A549 cells. Conditions: A549, gefitinib 5 μM alone, 48 h.
Procedure: At least 10,000 events were acquired using a LSRFortessa cell analyzer, and the flow cytometric data were analyzed using BD FACSDiva software (BD Biosciences). Apoptotic cells were defined as the ones stained positive for both Annexin V-FITC and 7-AAD.
Series [13] in a line: in vivo. The note with it: NOD SCID γ (NSG), mouse.
Procedure: A Zorbax Eclipse XDB-C18 column (4.6 × 250 mm^2, 5 μm, Agilent Technologies) was used to achieve chromatographic separation of the analytes. An isocratic chromatographic system was used. The mobile phase was water:acetonitrile (35:65, v/v) with 0.1% formic acid at a flow rate of 0.25 mL/min. The injection volume of the sample was 10 μL. The triple quadrupole mass spectrometer was operated in positive electrospray ionization mode. The spray voltage was +3000 V, and the vaporizer temperature was 280 °C. The pressure of the collision gas was 1.0 mTorr.

Sequence of ABCB1 (P08183 whole entry, species assumed): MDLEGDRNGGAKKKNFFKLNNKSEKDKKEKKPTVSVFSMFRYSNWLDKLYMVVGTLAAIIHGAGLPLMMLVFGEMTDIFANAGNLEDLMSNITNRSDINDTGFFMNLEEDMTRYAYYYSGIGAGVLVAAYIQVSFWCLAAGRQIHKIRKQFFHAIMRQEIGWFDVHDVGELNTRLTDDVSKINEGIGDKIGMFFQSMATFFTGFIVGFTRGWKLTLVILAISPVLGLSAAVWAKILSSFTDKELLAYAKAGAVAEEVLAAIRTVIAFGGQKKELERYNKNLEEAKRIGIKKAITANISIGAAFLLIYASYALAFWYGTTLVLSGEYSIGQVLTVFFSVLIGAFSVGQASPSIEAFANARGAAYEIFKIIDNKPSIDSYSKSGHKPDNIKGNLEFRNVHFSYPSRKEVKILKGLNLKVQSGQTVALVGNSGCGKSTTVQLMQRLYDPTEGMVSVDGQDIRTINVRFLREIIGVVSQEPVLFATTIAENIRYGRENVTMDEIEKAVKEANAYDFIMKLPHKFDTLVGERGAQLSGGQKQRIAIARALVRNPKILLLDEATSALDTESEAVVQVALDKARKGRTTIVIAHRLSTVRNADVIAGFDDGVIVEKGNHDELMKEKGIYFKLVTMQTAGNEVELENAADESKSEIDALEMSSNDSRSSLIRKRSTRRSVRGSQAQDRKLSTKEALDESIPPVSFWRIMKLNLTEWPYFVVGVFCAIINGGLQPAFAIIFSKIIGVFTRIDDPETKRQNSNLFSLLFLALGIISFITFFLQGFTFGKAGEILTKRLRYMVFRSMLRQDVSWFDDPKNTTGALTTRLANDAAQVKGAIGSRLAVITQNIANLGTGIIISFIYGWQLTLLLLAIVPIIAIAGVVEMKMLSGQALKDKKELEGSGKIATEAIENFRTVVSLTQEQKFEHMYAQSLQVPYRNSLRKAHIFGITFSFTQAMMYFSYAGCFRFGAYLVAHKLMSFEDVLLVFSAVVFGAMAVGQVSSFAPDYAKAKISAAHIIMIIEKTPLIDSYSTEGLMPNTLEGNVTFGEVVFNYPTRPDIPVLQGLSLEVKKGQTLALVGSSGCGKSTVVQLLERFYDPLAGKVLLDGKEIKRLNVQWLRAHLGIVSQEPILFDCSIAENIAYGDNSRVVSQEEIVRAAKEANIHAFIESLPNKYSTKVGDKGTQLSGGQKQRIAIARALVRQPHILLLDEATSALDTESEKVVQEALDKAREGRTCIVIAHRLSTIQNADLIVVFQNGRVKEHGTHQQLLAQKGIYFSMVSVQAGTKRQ

Take `Nc1nc(N)c2nc(-c3ccccc3)c(N)nc2n1` [triamterene]: in series [1], the “fold increase in histone H3 acetylation (AcH3) over the vehicle control” value came to 75 ± 6 fold.
On the same count and under the same terms, under `C(=C\c1ccccc1)/CN1CCN(C(c2ccccc2)c2ccccc2)CC1` [cinnarizine] stands 15 ± 3 fold.
Take `COc1ccc2c3c([nH]c2c1)[C@H](C=C(C)C)N1C(=O)[C@@H]2CCCN2C(=O)[C@@H]1C3` [FTC]: the “efflux of pheophorbide A (ABCG2 substrate)” value in series [2] was “potently inhibited the efflux”.
For the compound `O=C(CCCCCCC(=O)Nc1ccccc1)NO` [SAHA, Vorinostat], the Bim expression result in series [3] was “significantly increase”. Also, the “p27^Kip1 expression” value in series [4] is “significantly increase”. The elimination half-life in series [5] is recorded as ~2 h.
Regarding `C/C=C/C[C@@H](C)C(=O)[C@H]1C(=O)N[C@@H](C(C)C)C(=O)N(C)CC(=O)N(C)[C@@H](CC(C)C)C(=O)N[C@@H](C(C)C)C(=O)N(C)[C@@H](CC(C)C)C(=O)N[C@@H](C)C(=O)N[C@H](C)C(=O)N(C)[C@@H](CC(C)C)C(=O)N(C)[C@@H](CC(C)C)C(=O)N(C)[C@@H](C(C)C)C(=O)N1C` [PSC833], the “efflux of rhodamine 123 (ABCB1 substrate)” value in [6] is “potently inhibited the efflux”.
As to `COc1cc2ncnc(Nc3ccc(F)c(Cl)c3)c2cc1OCCCN1CCOCC1` [gefitinib], the apoptotic cell population in series [7] was 8.9 ± 1.3%; in series [8], 7.9 ± 1.6%; in series [12], 7.6 ± 0.9%. The viability in [9] turned out to be 61 ± 5%; in series [10] it was 52 ± 8%; in series [11] it was 66 ± 8%. For the same compound, in series [13], the concentration at 4 h amounted to 32 ± 6 nM.
